Test [1] has as its target T1, GST-LXRβ ligand-binding domain (Homo sapiens, UniProt P55055).
T1 construct: amino acids 156-461; NP009052; made in house; host or cells: E. coli
T1 sequence (P55055 156-460 limits assumed): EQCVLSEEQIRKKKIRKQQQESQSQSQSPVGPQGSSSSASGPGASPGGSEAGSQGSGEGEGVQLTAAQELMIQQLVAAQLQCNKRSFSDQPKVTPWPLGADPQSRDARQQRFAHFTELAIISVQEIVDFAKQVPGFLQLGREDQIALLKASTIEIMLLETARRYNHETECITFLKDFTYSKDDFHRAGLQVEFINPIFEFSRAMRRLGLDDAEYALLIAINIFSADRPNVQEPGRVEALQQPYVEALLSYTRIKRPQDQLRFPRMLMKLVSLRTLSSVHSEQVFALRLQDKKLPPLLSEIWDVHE
Kind of test: TR-FRETβ activity assay (NCoA3 coactivator peptide recruitment). The format is biochemical. The note with it: 1 μM 24(S)-25-epoxycholesterol prestimulation. The method, then: Recombinant GST-LXRβ ligand-binding domain (LBD; amino acids 156-461; NP009052; SEQ ID NO:4) was expressed in E. coli and purified via gluthatione-sepharose affinity chromatography. N-terminally biotinylated NCoA3 coactivator peptide (SEQ ID NO:7) was chemically synthesized (Eurogentec). Assays were done in 384 well format (final assay volume of 25 μL/well) in a Tris/HCl buffer (pH 6.8) containing KCl, bovine serum albumin, Triton-X-100 and 1 μM 24(S)-25-epoxycholesterol as LXR-prestimulating agonist. Assay buffer was provided and test articles (potential LXR inverse agonists) were titrated to yield final assay concentrations of 50 μM, 16.7 μM, 5.6 μM, 1.9 μM, 0.6 μM, 0.2 μM, 0.07 μM, 0.02 μM, 0.007 μM, 0.002 μM with one vehicle control. Finally, a detection mix was added containing anti GST-Tb cryptate (CisBio; 610SAXLB) and Streptavidin-XL665 (CisBio; 610SAXLB) as fluorescent donor and acceptor, respectively, as well as the coactivator peptide and LXRβ-LBD protein (SEQ ID NO:4). The reaction was mixed thoroughly, equilibrated for 1 h at 4° C. and vicinity of LXRβ and coactivator peptide was detected by measurement of fluorescence in a VictorX4 multiplate reader (PerkinElmer Life Science) using 340 nm as excitation and 615 and 665 nm as emission wavelengths. Assays were performed in triplicates.
240 mM KCl, 1 μg/μL BSA, 0.002% Triton-X-100, […] anti GST-Tb cryptate, 2.5 ng/μL Streptavidin-XL665, coactivator peptide (400 nM), LXRβ protein (530 μg/mL, i.e. 76 nM).

For a further test, the target named is T2, LXRβ (Homo sapiens, UniProt P55055).
T2 sequence (P55055 1-460): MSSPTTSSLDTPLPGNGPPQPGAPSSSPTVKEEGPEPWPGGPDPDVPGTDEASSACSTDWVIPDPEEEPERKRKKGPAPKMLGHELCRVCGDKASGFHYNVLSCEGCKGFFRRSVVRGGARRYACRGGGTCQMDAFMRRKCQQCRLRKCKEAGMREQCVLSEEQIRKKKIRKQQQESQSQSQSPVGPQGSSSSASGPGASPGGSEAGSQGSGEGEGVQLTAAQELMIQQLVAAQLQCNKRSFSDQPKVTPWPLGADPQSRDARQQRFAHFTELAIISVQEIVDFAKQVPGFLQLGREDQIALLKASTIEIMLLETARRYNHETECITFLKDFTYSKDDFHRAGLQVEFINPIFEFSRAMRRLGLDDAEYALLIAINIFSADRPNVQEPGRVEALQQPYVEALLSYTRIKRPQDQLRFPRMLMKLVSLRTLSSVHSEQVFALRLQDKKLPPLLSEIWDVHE
Kind of test: LXR Gal4 reporter transient transfection assay (mammalian two-hybrid, HEK293), LXRβ. Further details: LXRβ (amino acids 156-461); expressed in transfected cells; host or cells: HEK293. The format is cell-based. The following applies: full length (FL) LXRβ, HEK293; read-out: FL-M2H Gal4β. As to the method:
LXRα and LXRβ activity status was determined via detection of interaction with coactivator and corepressor proteins in mammalian two-hybrid experiments (M2H). For this, via transient transfection the full length (FL) proteins of LXRα (amino acids 1-447; NP005684; SEQ ID NO:1) or LXRβ-(amino acids 1-461; NP009052; SEQ ID NO:2) or the ligand-binding domains (LBD) of LXRα (amino acids 155-447 SEQ ID NO:3) or LXRβ (amino acids 156-461; SEQ ID NO:4) were expressed from pCMV-AD (Stratagene) as fusions to the transcriptional activation domain of NFkB. As cofactors, domains of either the steroid receptor coactivator 1 (SRC1; amino acids 552-887; SEQ ID NO:5) or of the corepressor NCoR (amino acids 1906-2312; NP006302; SEQ ID NO:6) were expressed as fusions to the DNA binding domain of the yeast transcription factor GAL4 (from pCMV-BD; Stratagene). Interaction was monitored via activation of a coexpressed Firefly Luciferase Reporter gene under control of a promoter containing repetitive GAL4 response elements (vector pFRLuc; Stratagene). Transfection efficiency was controlled via cotransfection of constitutively active pRL-CMV Renilla reniformis luciferase reporter (Promega). HEK293 cells were grown in minimum essential medium (MEM) with 2 mM L-glutamine and Earle's balanced salt solution supplemented with 8.3% fetal bovine serum, 0.1 mM non-essential amino acids, 1 mM sodium pyruvate, at 37° C. in 5% CO2. 3.5×10^4 cells/well were plated in 96-well cell culture plates in growth medium supplemented with 8.3% fetal bovine serum for 16-20 h to ˜90% confluency. For transfection, medium was taken off and LXR and cofactor expressing plasmids as well as the reporter plasmids are added in 30 μL OPTIMEM/well including polyethylene-imine (PEI) as vehicle. Typical amounts of plasmids transfected/well: pCMV-AD-LXR (5 ng), pCMV-BD-cofactor (5 ng), pFR-Luc (100 ng), pRL-CMV (0.5 ng). Compound stocks were prepared in DMSO, prediluted in MEM to a total volume of 120 μL, and added 4 h after addition of the transfection mixture (final vehicle concentration not exceeding 0.2%). Cells were incubated for additional 16 h, lysed for 10 min in 1×Passive Lysis Buffer (Promega) and Firefly and Renilla luciferase activities were measured sequentially in the same cell extract using buffers containing D-luciferine and coelenterazine, respectively. Measurements of luminescence were done in a BMG-luminometer.
The potencies of Compound 21/3 and its analog, Compound pre-6/3, against LXRα and LXRβ were evaluated in biochemical binding assays, cellular mammalian two-hybrid (M2H) interaction assays evaluating nuclear receptor co-repressor (NCOR) recruitment, and cellular reporter assays evaluating transcriptional activity (Table 5).

Take `[2H]c1c([2H])c(S(=O)(=O)n2c(-c3cccc(-c4ccc(C(=O)O)cc4Cl)c3)c(-c3ccsc3C#N)c3cc(F)ccc32)c([2H])c([2H])c1C([2H])([2H])[2H]` [3/22]: the EC50 (in test [1]; on LXRβ) was under 100 nM each time.

Turning to `Cc1cc(S(=O)(=O)n2c(-c3cccc(-c4ccc(C(=O)O)cc4Cl)c3)c(-c3ccsc3C#N)c3cc(F)ccc32)ccc1F` [3/23], the EC50 is 100 to 1000 nM in test [1] and under 100 nM on LXRβ.

For `Cc1ccc(S(=O)(=O)n2c(-c3cccc(N4CC(C(=O)O)C4)c3)c(-c3sccc3C#N)c3cc(F)ccc32)cc1` [3/25], the EC50 in test [1] is 1000 to 10000 nM; at LXRβ it was under 100 nM.

As for `Cc1ccc(S(=O)(=O)n2c(-c3cccc(N4CC(C(=O)O)C4)c3)c(-c3ccoc3C#N)c3cc(F)ccc32)cc1` [3/26], the EC50 in test [1] is 1000 to 10000 nM; on LXRβ, under 100 nM.

As for `Cc1ccc(S(=O)(=O)n2c(-c3cccc(N4CC(C(=O)O)C4)c3)c(-c3ccsc3CCO)c3cc(F)ccc32)cc1` [3/27], the EC50 lay within 1000 to 10000 nM in test [1] and 100 to 1000 nM on LXRβ.

For `Cc1ccc(S(=O)(=O)n2c(-c3cccc(N4CC(C(=O)O)C4)c3)c(-c3ccsc3C(=O)N(C)C)c3cc(F)ccc32)cc1` [3/28], the EC50 was over 10000 nM in test [1] and 1000 to 10000 nM at LXRβ.

For `Cc1ccc(S(=O)(=O)n2c(-c3cccc(N4CC(C(=O)O)C4)c3)c(-c3ccsc3C(F)(F)F)c3cc(F)ccc32)cc1` [3/30], the EC50 was 100 to 1000 nM in test [1] and under 100 nM on LXRβ.

In the case of `Cc1ccc(S(=O)(=O)n2c(-c3cccc(N4CC(C(=O)O)C4)c3)c(-c3ccccc3C3COC3)c3cc(F)ccc32)cc1` [3/31], the EC50 (in test [1]; at LXRβ) was 100 to 1000 nM in each case.

With `Cc1ccc(S(=O)(=O)n2c(-c3cccc(N4CC(C(=O)O)C4)c3)c(-c3ccsc3C#N)c3cc(F)ccc32)cc1` [3/32], the EC50 is 100 to 1000 nM in test [1] and under 100 nM on LXRβ.

As for `N#Cc1sccc1-c1c(-c2cccc(N3CC(C(=O)O)C3)c2)n(S(=O)(=O)c2ccc(C(F)(F)F)cc2)c2ccc(F)cc12` [3/34], the EC50 in test [1] was 100 to 1000 nM; on LXRβ it was under 100 nM.

For `N#Cc1sccc1-c1c(-c2cccc(N3CC(C(=O)O)C3)c2)n(S(=O)(=O)c2ccc(C(F)F)cc2)c2ccc(F)cc12` [3/35], the results for the EC50 (in test [1]; at LXRβ) were 100 to 1000 nM and under 100 nM, respectively.

On to `CC1CCN(S(=O)(=O)n2c(-c3cccc(N4CC(C(=O)O)C4)c3)c(-c3ccsc3C#N)c3cc(F)ccc32)CC1` [3/36], for which the figures for the EC50 (in test [1]; at LXRβ) were 1000 to 10000 nM and 100 to 1000 nM, respectively.

With `Cc1ccc(S(=O)(=O)n2c(-c3cccc(N4CC(C)(C(=O)O)C4)c3)c(-c3ccsc3C#N)c3cc(F)ccc32)cc1` [3/37], the values for the EC50 (in test [1]; on LXRβ) were 100 to 1000 nM and under 100 nM, respectively.

For the compound `Cc1ccc(S(=O)(=O)n2c(-c3cccc(N4CCC(C(=O)O)CC4)c3)c(-c3ccsc3C#N)c3cc(F)ccc32)cc1` [3/38], the EC50 in test [1] was 100 to 1000 nM; on LXRβ it was under 100 nM.

`Cc1ccc(S(=O)(=O)n2c(-c3cccc(C4CC(C(=O)O)C4)c3)c(-c3ccsc3C#N)c3cc(F)ccc32)cc1` (stereo not drawn) [3/39]: the EC50 is 100 to 1000 nM in test [1] and under 100 nM at LXRβ.

Consider `Cc1ccc(S(=O)(=O)n2c(-c3cc(N4CC(C(=O)O)C4)ccc3Cl)c(-c3ccsc3C#N)c3cc(F)ccc32)cc1` [3/40], for which the EC50 in test [1] is 1000 to 10000 nM; on LXRβ it was under 100 nM.

Take `Cc1ccc(S(=O)(=O)n2c(-c3cc(N4CC(C(=O)O)C4)ccc3F)c(-c3ccsc3C#N)c3cc(F)ccc32)cc1` [3/41]: the EC50 was 1000 to 10000 nM in test [1] and under 100 nM at LXRβ.

As to `Cc1ccc(S(=O)(=O)n2c(-c3cccc(N4CC(C(=O)O)C4)c3)c(-c3ccsc3C#N)c3cc(C#N)ccc32)cc1` [3/45], the EC50 in test [1] lay within 1000 to 10000 nM; on LXRβ, 100 to 1000 nM.

Take `Cc1ccc(S(=O)(=O)n2c(-c3cccc(-c4ccc(C(=O)O)nc4)c3)c(-c3ccsc3C#N)c3cc(F)ccc32)cc1` [3/47]: the EC50 is 100 to 1000 nM in test [1] and under 100 nM on LXRβ.

As for `Cc1ccc(S(=O)(=O)n2c(-c3cccc(-c4ccc(C(=O)O)c(Cl)c4)c3)c(-c3ccsc3C#N)c3cc(F)ccc32)cc1` [3/49], the values for the EC50 (in test [1]; at LXRβ) were 100 to 1000 nM and under 100 nM, respectively.

In the case of `Cc1ccc(S(=O)(=O)n2c(-c3cccc(N4CCC(C)(C(=O)O)CC4)c3)c(-c3ccsc3C#N)c3cc(F)ccc32)cc1` [3/50], the EC50 in test [1] is 100 to 1000 nM; at LXRβ it was under 100 nM.

On to `Cc1ccc(S(=O)(=O)n2c(-c3cccc(N4CC(C(=O)NC(C)(C)C(=O)O)C4)c3)c(-c3ccsc3C#N)c3cc(F)ccc32)cc1` [3/52], for which the EC50 (in test [1]; at LXRβ) was 100 to 1000 nM each time.

Take `COc1cc(F)cc2c(-c3ccsc3C#N)c(-c3cccc(-c4ccc(C(=O)O)cc4)c3)n(S(=O)(=O)c3ccc(C)cc3)c12` [3/53]: the EC50 (in test [1]; at LXRβ) was under 100 nM each time.

Regarding `Cc1ccc(S(=O)(=O)n2c(-c3cccc(-c4ccc(C(=O)O)cc4)c3)c(-c3ccsc3C#N)c3cc(F)cc(O)c32)cc1` [3/54], the EC50 in test [1] is 100 to 1000 nM; at LXRβ, under 100 nM.

Turning to `Cc1ccc(S(=O)(=O)n2c(-c3cccc(-c4ccc(C(C)(O)C(=O)O)cc4)c3)c(-c3ccsc3C#N)c3cc(F)ccc32)cc1` (stereo not drawn) [3/55], the EC50 in test [1] was 100 to 1000 nM; at LXRβ, under 100 nM.

Turning to `O=C(O)c1ccc(-c2cccc(-c3c(-c4ccccc4C4COC4)c4cc(F)ccc4n3S(=O)(=O)c3ccc(Cl)cc3)c2)c(Cl)c1` [3/56], the EC50 (in test [1]; on LXRβ) was under 100 nM in each case.

In the case of `N#Cc1sccc1-c1c(-c2cccc(-c3ccc(C(=O)O)cc3Cl)c2)n(S(=O)(=O)c2ccc(Cl)cc2)c2ccc(F)cc12` [3/57], the EC50 in test [1] is 100 to 1000 nM; on LXRβ, under 100 nM.

The values are drawn from patent publication US20260083704A1, “LXR MODULATORS WITH BICYCLIC CORE MOIETY FOR TREATING DYSLIPIDEMIAS” (OrsoBio, Inc., priority 2022, published 2026).
